In general, EC50 refers to the concentration that produces a half-maximal response.

Our source for the EC50 values is patent US20240279278A1, “NMU RECEPTOR 2 AGONISTS” (Boehringer Ingelheim International GmbH, priority 2023, published 2024).

SMILES strings stand for the structures. Residues, ends and D or L forms follow the SMILES beside them.

Holding throughout (assay type): cell-based
In assay [1] the target is T1, human NMUR2 receptor (Homo sapiens, UniProt Q9GZQ4). The assay can be described thus: IP1 Gq HTRF assay, activation of human NMUR2 in buffer. Also noted: expressed in transfected cells; host or cells: CHO-K1. To be noted: CHO-K1 cells expressing human NMUR2, stimulation buffer with 0.1% BSA; read-out: EC50 (hNMUR2) buffer. An excerpt:
(§1) Example 3: IP1 Gq HTRF Assay Activation of Human NMUR2 or Human NMUR1 in Buffer Application of the Homogenous Time Resolved Fluorescence (HTRF) technology optimized for Gq coupled receptors has been described in detail in the Cisbio IP-One Gq kit manual. In brief, a FRET signal (FRET: fluorescence resonance energy transfer) is generated between the donor label of an IP-One antibody (anti-IP1-Tb) and the acceptor label of a tagged IP-One (IP1-d2). Agonism of a Gq coupled receptor increases intracellular IP-One, which competes with labeled IP-One and leads to a reduction of the FRET signal. Frozen stocks of CHO-K1 cells stably expressing the human NMUR1 or NMUR2 receptor were thawed and 5000 cells were seeded in culture medium (HAM'S F12, 10% FCS) into each well of a 384-well assay plate. After seeding, cells were incubated for 24 h in a humidified incubator at 37° C. and 5% CO2. Next, cells were washed once with 50 μL of wash buffer (20 mM Hepes, 1×HBSS, pH 7.4), followed by addition of either 10 μL of stimulation buffer (20 mM Hepes, 1×HBSS, 50 mM LiCl, 0.1% BSA, pH 7.4). Peptide agonists to be tested were dissolved in 100% DMSO and pre-diluted in stimulation buffer at a suitable concentration range for an 8 pt dose-response curve. 5 μL of peptide pre-dilution were then added to each well, followed by another 5 μL of stimulation buffer to give a final concentration of 1% DMSO. Samples were subsequently incubated for 1 hour in a humidified incubator at 37° C. After addition of 5 μL each of IP1-d2 and anti-IP1-Tb, samples were incubated for another 1 hour at room temperature and FRET signals (ratio 665 nm/620 nm) were measured. EC50 values were calculated by nonlinear regression using a 4-parameter sigmoidal curve fit.
(Time-resolved FRET reads energy transfer from a long-lived donor to a nearby acceptor.)

For assay [2], the target named is T2, human NMUR1 receptor (Homo sapiens, UniProt Q9HB89).
T2 construct: expressed in transfected cells; host or cells: CHO-K1
T2 sequence (Q9HB89 1-426): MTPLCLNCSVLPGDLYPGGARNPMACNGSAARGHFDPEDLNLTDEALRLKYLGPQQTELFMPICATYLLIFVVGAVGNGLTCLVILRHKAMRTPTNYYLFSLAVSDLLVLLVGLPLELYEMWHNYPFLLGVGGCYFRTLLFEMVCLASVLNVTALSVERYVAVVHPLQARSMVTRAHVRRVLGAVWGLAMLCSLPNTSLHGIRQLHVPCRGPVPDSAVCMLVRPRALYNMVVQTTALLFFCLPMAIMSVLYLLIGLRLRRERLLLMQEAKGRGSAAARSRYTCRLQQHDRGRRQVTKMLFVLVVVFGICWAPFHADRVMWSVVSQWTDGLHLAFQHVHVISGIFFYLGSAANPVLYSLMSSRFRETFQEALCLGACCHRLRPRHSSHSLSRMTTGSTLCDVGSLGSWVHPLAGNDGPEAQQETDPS
The assay can be described thus: IP1 Gq HTRF assay, activation of human NMUR1 in buffer. To be noted: CHO-K1 cells expressing human NMUR1, stimulation buffer with 0.1% BSA; read-out: EC50 (hNMUR1) buffer.
Excerpt: as §1

Assay [3] concerns the target T1, human NMUR2 receptor. Put plainly: IP1 Gq HTRF assay, activation of human NMUR2 in human plasma. On the set-up: expressed in transfected cells; host or cells: CHO-K1. Conditions: CHO-K1 cells expressing human NMUR2, 100% human plasma; read-out: EC50 (hNMUR2) human plasma. An excerpt: Example 4: IP1 Gq HTRF Assay Activation of Human NMUR2 in Human Plasma Application of the Homogenous Time Resolved Fluorescence (HTRF) technology optimized for Gq coupled receptors has been described in detail in the Cisbio IP-One Gq kit manual. In brief, a FRET signal is generated between the donor label of an IP-One antibody (anti-IP1-Tb) and the acceptor label of a tagged IP-One (IP1-d2). Agonism of a Gq coupled receptor increases intracellular IP-One, which competes with labeled IP-One and leads to a reduction of the FRET signal. Frozen stocks of CHO-K1 cells stably expressing the human NMUR1 receptor or human NMUR2 receptor were thawed and 5000 cells were seeded in culture medium (HAM'S F12, 10% FCS) into each well of a 384-well assay plate. After seeding, cells were incubated for 24 h in a humidified incubator at 37° C. and 5% CO2. Next, cells were washed once with […] of wash buffer (20 mM Hepes, 1×HBSS, pH 7.4), followed by addition of […] (100% human plasma, 50 mM LiCl). Peptide agonists to be tested were dissolved in 100% DMSO and pre-diluted in plasma at a suitable concentration range for an 8 pt dose-response curve. 5 μL of peptide pre-dilution were then added to each well, followed by another 5 μL of plasma to give a final concentration of 1% DMSO. Samples were subsequently incubated for 1 hour in a humidified incubator at 37° C. The plasma solution was replaced by 20 μL of stimulation buffer. After addition of 5 μL each of IP1-d2 and anti-IP1-Tb, samples were incubated for another 1 hour at room temperature and FRET signals (ratio 665 nm/620 nm) were measured. EC50 values were calculated by nonlinear regression using a 4-parameter sigmoidal curve fit.

T1 sequence (Q9GZQ4 whole entry): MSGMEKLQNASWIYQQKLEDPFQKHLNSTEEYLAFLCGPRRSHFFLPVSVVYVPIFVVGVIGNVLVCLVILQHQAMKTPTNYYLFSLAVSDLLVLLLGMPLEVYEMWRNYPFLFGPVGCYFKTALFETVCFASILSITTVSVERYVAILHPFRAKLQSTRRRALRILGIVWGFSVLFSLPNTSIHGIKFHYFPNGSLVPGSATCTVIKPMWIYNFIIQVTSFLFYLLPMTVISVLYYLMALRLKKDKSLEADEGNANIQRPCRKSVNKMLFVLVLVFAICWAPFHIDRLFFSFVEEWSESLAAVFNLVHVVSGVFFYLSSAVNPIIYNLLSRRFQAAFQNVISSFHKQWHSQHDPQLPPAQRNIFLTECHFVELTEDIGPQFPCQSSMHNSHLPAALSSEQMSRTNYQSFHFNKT

As for `CCCC[C@H](NC(=O)[C@H](CC(C)C)N(C)C(=O)[C@H](Cc1ccccc1)NC(=O)[C@H](Cc1ccc(O)cc1)NC(=O)CN1CCN(CCNC(=O)CN(C)C(=O)CN(C)C(=O)CN(C)C(=O)CN(C)C(=O)CN(C)C(=O)CN(C)C(=O)CN(C)C(=O)CN(C)C(=O)CN(C)C(=O)CN(C)C(=O)CN(C)C(=O)CN(C)C(=O)CC[C@H](NC(=O)CC[C@H](NC(=O)CC[C@H](NC(=O)CC[C@H](NC(=O)CCCCCCCCCCCCCCCCC(=O)O)C(=O)O)C(=O)O)C(=O)O)C(=O)O)CC1)C(=O)N[C@@H](CCCNC(=N)N)C(=O)N1CCC[C@H]1C(=O)N[C@@H](CCCNC(=N)N)C(=O)NCC(N)=O` [Compound 2, C18DA-gGlu4-Sar12-AEPipAc-Tyr-Phe-NMeLeu-Nle-Arg-Pro-Arg-Gly-NH2], the EC50 turned out to be 1.1 nM in assay [1], 220 nM in assay [2] and 3.7 nM in assay [3].
With `CCCC[C@H](NC(=O)[C@H](CC(C)C)N(C)C(=O)[C@H](Cc1ccccc1)NC(=O)[C@H](Cc1ccc(O)cc1)NC(=O)CN1CCN(CCNC(=O)CN(C)C(=O)CN(C)C(=O)CN(C)C(=O)CN(C)C(=O)CN(C)C(=O)CN(C)C(=O)CN(C)C(=O)CN(C)C(=O)CN(C)C(=O)CN(C)C(=O)CN(C)C(=O)CN(C)C(=O)CN(C)C(=O)CN(C)C(=O)CN(C)C(=O)CC[C@H](NC(=O)CC[C@H](NC(=O)CC[C@H](NC(=O)CC[C@H](NC(=O)CCCCCCCCCCCCCCCCCCC(=O)O)C(=O)O)C(=O)O)C(=O)O)C(=O)O)CC1)C(=O)N[C@@H](CCCN)C(=O)N1CCC[C@H]1C(=O)N[C@@H](CCCNC(=N)N)C(=O)NCC(N)=O` [Compound 3, C20DA-gGlu4-Sar15-AEPipAc-Tyr-Phe-NMeLeu-Nle-Orn-Pro-Arg-Gly-NH2] (HELM PEPTIDE1{[O=C(O)CCCCCCCCCCCCCCCCCCC(=O)[*:2]].[gGlu].[gGlu].[gGlu].[gGlu].[Sar].[Sar].[Sar].[Sar].[Sar].[Sar].[Sar].[Sar].[Sar].[Sar].[Sar].[Sar].[Sar].[Sar].[Sar].[O=C(CN1CCN(CCN[*:1])CC1)[*:2]].Y.F.[meL].[Nle].[Orn].P.R.G.[am]}$$$$V2.0), the figures for the half-maximal effective concentration (EC50) in assay [1], in assay [2] and in assay [3] were 1.9 nM, 440 nM and 5.6 nM, respectively.
The corresponding values for `CCCC[C@H](NC(=O)[C@H](CC(C)C)N(C)C(=O)[C@H](Cc1ccccc1)NC(=O)[C@H](Cc1ccc(O)cc1)NC(=O)CN1CCN(CCNC(=O)CN(C)C(=O)CN(C)C(=O)CN(C)C(=O)CN(C)C(=O)CN(C)C(=O)CN(C)C(=O)CN(C)C(=O)CN(C)C(=O)CN(C)C(=O)CN(C)C(=O)CN(C)C(=O)CN(C)C(=O)CN(C)C(=O)CN(C)C(=O)CN(C)C(=O)CC[C@H](NC(=O)CC[C@H](NC(=O)CC[C@H](NC(=O)CC[C@H](NC(=O)CCCCCCCCCCCCCCCCCCC(=O)O)C(=O)O)C(=O)O)C(=O)O)C(=O)O)CC1)C(=O)N[C@@H](CCN)C(=O)N1CCC[C@H]1C(=O)N[C@@H](CCCNC(=N)N)C(=O)NCC(N)=O` [Compound 4, C20DA-gGlu4-Sar15-AEPipAc-Tyr-Phe-NMeLeu-Nle-Dbu-Pro-Arg-Gly-NH2] (HELM PEPTIDE1{[O=C(O)CCCCCCCCCCCCCCCCCCC(=O)[*:2]].[gGlu].[gGlu].[gGlu].[gGlu].[Sar].[Sar].[Sar].[Sar].[Sar].[Sar].[Sar].[Sar].[Sar].[Sar].[Sar].[Sar].[Sar].[Sar].[Sar].[O=C(CN1CCN(CCN[*:1])CC1)[*:2]].Y.F.[meL].[Nle].[Dab].P.R.G.[am]}$$$$V2.0) are 2 nM, 770 nM and 5.8 nM.
Take `CCCC[C@H](NC(=O)[C@H](CC(C)C)N(C)C(=O)[C@H](Cc1ccccc1)NC(=O)[C@H](Cc1ccc(O)cc1)NC(=O)CN1CCN(CCNC(=O)CN(C)C(=O)CN(C)C(=O)CN(C)C(=O)CN(C)C(=O)CN(C)C(=O)CN(C)C(=O)CN(C)C(=O)CN(C)C(=O)CN(C)C(=O)CN(C)C(=O)CN(C)C(=O)CN(C)C(=O)CC[C@H](NC(=O)CC[C@H](NC(=O)CC[C@H](NC(=O)CC[C@H](NC(=O)CCCCCCCCCCCCCCCCCCC(=O)O)C(=O)O)C(=O)O)C(=O)O)C(=O)O)CC1)C(=O)N[C@@H](CCCN)C(=O)N(C)[C@@H](C)C(=O)N[C@@H](CCCNC(=N)N)C(=O)NCC(N)=O` [Compound 13, C20DA-gGlu4-Sar12-AEPipAc-Tyr-Phe-NMeLeu-Nle-Orn-NMeAla-Arg-Gly-NH2]: the EC50 in assay [1] is 3.5 nM; in assay [2], 1200 nM; in assay [3], 10.2 nM.
Regarding `CCCC[C@H](NC(=O)[C@H](CC(C)C)N(C)C(=O)[C@H](Cc1ccccc1)NC(=O)[C@H](Cc1ccc(O)cc1)NC(=O)CN1CCN(C(=O)CN(C)C(=O)CN(C)C(=O)CN(C)C(=O)CN(C)C(=O)CN(C)C(=O)CN(C)C(=O)CN(C)C(=O)CN(C)C(=O)CN(C)C(=O)CN(C)C(=O)CN(C)C(=O)CN(C)C(=O)CC[C@H](NC(=O)CC[C@H](NC(=O)CC[C@H](NC(=O)CCCCCCCCCCCCCCCCCCC(=O)O)C(=O)O)C(=O)O)C(=O)O)CC1)C(=O)N[C@@H](CCCNC(=N)N)C(=O)N1CCC[C@H]1C(=O)N[C@@H](CCCNC(=N)N)C(=O)NCC(N)=O` [Compound 78, C20DA-gGlu3-Sar12-PipAc-Tyr-Phe-NMeLeu-Nle-Arg-Pro-Arg-Gly-NH2], the EC50 was 1.2 nM in assay [1] and 5.3 nM in assay [3].
On the same counts, the results for `CCCC[C@H](NC(=O)[C@H](CC(C)C)N(C)C(=O)[C@H](Cc1ccccc1)NC(=O)[C@H](Cc1ccc(O)cc1)NC(=O)CN1CCN(C(=O)CN(C)C(=O)CN(C)C(=O)CN(C)C(=O)CN(C)C(=O)CN(C)C(=O)CN(C)C(=O)CN(C)C(=O)CN(C)C(=O)CN(C)C(=O)CN(C)C(=O)CN(C)C(=O)CN(C)C(=O)CN(C)C(=O)CN(C)C(=O)CN(C)C(=O)CC[C@H](NC(=O)CC[C@H](NC(=O)CC[C@H](NC(=O)CCCCCCCCCCCCCCCCCCC(=O)O)C(=O)O)C(=O)O)C(=O)O)CC1)C(=O)N[C@@H](CCCN)C(=O)N1CCC[C@H]1C(=O)N[C@@H](CCCNC(=N)N)C(=O)NCC(N)=O` [Compound 80, C20DA-gGlu3-Sar15-PipAc-Tyr-Phe-NMeLeu-Nle-Orn-Pro-Arg-Gly-NH2] (HELM PEPTIDE1{[O=C(O)CCCCCCCCCCCCCCCCCCC(=O)[*:2]].[gGlu].[gGlu].[gGlu].[Sar].[Sar].[Sar].[Sar].[Sar].[Sar].[Sar].[Sar].[Sar].[Sar].[Sar].[Sar].[Sar].[Sar].[Sar].[O=C(CN1CCN([*:1])CC1)[*:2]].Y.F.[meL].[Nle].[Orn].P.R.G.[am]}$$$$V2.0) are 1.9 nM and 7.1 nM.
